The values that follow come from patent publication US20230111310A1, “CARBOXYLIC ACID DERIVATIVE-SUBSTITUTED IMINO ARYL COMPOUND, PREPARATION METHOD THEREFOR, HERBICIDAL COMPOSITION AND USE THEREOF” (Qingdao Kingagroot Chemical Compound Co., Ltd., priority 2020, published 2023).

What all share (test): Weeding effect in post-emergence stage
Common to all, as to type: in vivo

The test system of one assay is Eleusine indica. The settings on record: Dose 15 g/ha; for Weeding effect in post-emergence stage, Eleusine indica: level of fresh weight growth control rate. In outline: (§1)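 Pot-grown weeds were sprayed at the 2-3 leaf stage, 2 weeks after sowing, with compound in acetone plus Tween 80 and 1.5 liter/ha methyl oleate emulsifiable concentrate, diluted in water. Doses were 500, 250, 125, 60, 30, 15, 7.5 g/ha. Growth control was scored after 3 weeks in greenhouse; mean of three replicates.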

A further assay deals with Setaria viridis. To be noted: Dose 15 g/ha; for Weeding effect in post-emergence stage, Setaria viridis: level of fresh weight growth control rate. In outline:
as §1

In a further assay the test system is Digitaria sanguinalis. To be noted: Dose 15 g/ha; for Weeding effect in post-emergence stage, Digitaria sanguinalis: level of fresh weight growth control rate. A digest of the protocol: as §1
The test system of a further assay is Alopecurus japonicus. The settings on record: Dose 15 g/ha; for Weeding effect in post-emergence stage, Alopecurus japonicus: level of fresh weight growth control rate. A digest of the protocol: as §1
The test system of another assay is Abutilon theophrasti. The settings on record: Dose 15 g/ha; for Weeding effect in post-emergence stage, Abutilon theophrasti: level of fresh weight growth control rate. A digest of the protocol:
as §1

The test system of the next assay is Echinochloa crusgalli. To be noted: Dose 15 g/ha; for Weeding effect in post-emergence stage, Echinochloa crusgalli: level of fresh weight growth control rate. In outline: as §1
Setting [1] is: fresh weight control rate level.

Take `COC(=O)C(CC1CC1)O/N=C/c1cc(-n2c(=O)cc(C(F)(F)F)n(C)c2=O)c(F)cc1Cl` (racemic) [Compound 462]: in the assay on Eleusine indica (setting [1]), the “Weeding effect in post-emergence stage, Eleusine indica (level)” value is reported as 5 (Level 5: growth control rate is above 85%). Moreover, the “Weeding effect in post-emergence stage, Setaria viridis (level)” value in the assay on Setaria viridis (setting [1]) is given as 5 (Level 5: growth control rate is above 85%). For the same molecule, in the assay with Digitaria sanguinalis (setting [1]), the “Weeding effect in post-emergence stage, Digitaria sanguinalis (level)” value was 5 (Level 5: growth control rate is above 85%). Moreover, the “Weeding effect in post-emergence stage, Alopecurus japonicus (level)” value in the assay with Alopecurus japonicus (setting [1]) is recorded as 5 (Level 5: growth control rate is above 85%). For the same molecule, the “Weeding effect in post-emergence stage, Abutilon theophrasti (level)” value with Abutilon theophrasti (setting [1]) is 5 (Level 5: growth control rate is above 85%). Also, the “Weeding effect in post-emergence stage, Echinochloa crusgalli (level)” value in the assay with Echinochloa crusgalli (setting [1]) is recorded as 5 (Level 5: growth control rate is above 85%).
Take `CC(O/N=C/c1cc(-n2c(=O)cc(C(F)(F)F)n(C)c2=O)c(F)cc1Cl)C(=O)OCC(F)(F)F` (racemic) [Compound 218]: in the assay with Eleusine indica, the “Weeding effect in post-emergence stage, Eleusine indica” value was 5 (Level 5: growth control rate is above 85%). Also, the “Weeding effect in post-emergence stage, Setaria viridis” value with Setaria viridis is listed as 5 (Level 5: growth control rate is above 85%). In addition, in the assay on Digitaria sanguinalis, the “Weeding effect in post-emergence stage, Digitaria sanguinalis” value is listed as 5 (Level 5: growth control rate is above 85%). Besides, the “Weeding effect in post-emergence stage, Alopecurus japonicus” value with Alopecurus japonicus is recorded as 5 (Level 5: growth control rate is above 85%). The “Weeding effect in post-emergence stage, Abutilon theophrasti” value with Abutilon theophrasti is on record as 5 (Level 5: growth control rate is above 85%). For the same molecule, the “Weeding effect in post-emergence stage, Echinochloa crusgalli” value in the assay on Echinochloa crusgalli is reported as 5 (Level 5: growth control rate is above 85%).
Turning to `CC(O/N=C/c1cc(-n2c(=O)n(C)c(=S)n(C)c2=O)c(F)cc1Cl)C(=O)OCC1CC1` (racemic) [Compound 9], the “Weeding effect in post-emergence stage, Eleusine indica” value in the assay with Eleusine indica is on record as 5 (Level 5: growth control rate is above 85%). Besides, the “Weeding effect in post-emergence stage, Setaria viridis” value with Setaria viridis is 5 (Level 5: growth control rate is above 85%). In addition, in the assay on Digitaria sanguinalis, the “Weeding effect in post-emergence stage, Digitaria sanguinalis” value is 5 (Level 5: growth control rate is above 85%). In addition, the “Weeding effect in post-emergence stage, Alopecurus japonicus” value in the assay on Alopecurus japonicus is given as 5 (Level 5: growth control rate is above 85%). Also, the “Weeding effect in post-emergence stage, Abutilon theophrasti” value in the assay on Abutilon theophrasti is reported as 5 (Level 5: growth control rate is above 85%). Moreover, the “Weeding effect in post-emergence stage, Echinochloa crusgalli” value in the assay with Echinochloa crusgalli is on record as 5 (Level 5: growth control rate is above 85%).
As for `C[C@@H](O/N=C/c1cc(-n2c(=O)n(C)c(=S)n(C)c2=O)c(F)cc1Cl)C(=O)OCc1cccnc1` [59(R)], the “Weeding effect in post-emergence stage, Eleusine indica” value in the assay with Eleusine indica is reported as 5 (Level 5: growth control rate is above 85%). In addition, the “Weeding effect in post-emergence stage, Setaria viridis” value in the assay with Setaria viridis is given as 5 (Level 5: growth control rate is above 85%). Moreover, the “Weeding effect in post-emergence stage, Digitaria sanguinalis” value in the assay with Digitaria sanguinalis was 5 (Level 5: growth control rate is above 85%). Also, in the assay with Alopecurus japonicus, the “Weeding effect in post-emergence stage, Alopecurus japonicus” value is 4 (Level 4: growth control rate is greater than or equal to 60% and less than 85%). Also, the “Weeding effect in post-emergence stage, Abutilon theophrasti” value in the assay with Abutilon theophrasti was 5 (Level 5: growth control rate is above 85%). Moreover, the “Weeding effect in post-emergence stage, Echinochloa crusgalli” value in the assay with Echinochloa crusgalli is 5 (Level 5: growth control rate is above 85%).
Regarding `CCCCOCCOC(=O)C(C)O/N=C/c1cc(-n2c(=O)cc(C(F)(F)F)n(C)c2=O)c(F)cc1Cl` (stereo not drawn) [Compound 232], the “Weeding effect in post-emergence stage, Eleusine indica” value in the assay with Eleusine indica was 5 (Level 5: growth control rate is above 85%). Further, in the assay on Setaria viridis, the “Weeding effect in post-emergence stage, Setaria viridis” value was 5 (Level 5: growth control rate is above 85%). Also, the “Weeding effect in post-emergence stage, Digitaria sanguinalis” value in the assay on Digitaria sanguinalis is recorded as 5 (Level 5: growth control rate is above 85%). In the assay on Alopecurus japonicus, the “Weeding effect in post-emergence stage, Alopecurus japonicus” value was 5 (Level 5: growth control rate is above 85%). For the same molecule, in the assay on Abutilon theophrasti, the “Weeding effect in post-emergence stage, Abutilon theophrasti” value is 5 (Level 5: growth control rate is above 85%). Further, the “Weeding effect in post-emergence stage, Echinochloa crusgalli” value with Echinochloa crusgalli was 5 (Level 5: growth control rate is above 85%).
